Earlier results, collected in patent publication US11202772B2, “Duloxetine sprinkles” (priority 2016, dated 2021).

CNCCC(Oc1cccc2ccccc12)c1cccs1 (single isomer, unassigned; (+)) [Duloxetine, (+)-N-methyl-3-(1-naphthalenyloxy)-3-(2-thienyl)propan-1-amine]
drug in the dosage hydrolyzed to 1-naphthol (pH 1.0): 50%
drug degrades to 1-naphthol (pH of 2.0, in one hour): 10%
time for 10% degradation (pH of 4.0): up to 63 hours
